{
  "source": "ChEMBL document CHEMBL5096158",
  "about": "“HIV latency reversal agents: A potential path for functional cure?” (Eur J Med Chem, 2021)",
  "key": {"[1]": {"tested_on": "Human immunodeficiency virus 1", "experiment": "Reactivation of HIV-1 latency infected in human Th17 cells assessed as increase in HIV production by measuring phosphorylated S175 CDK9 levels at 10 nM incubated for 96 hrs by flow cytometry", "assay_type": "functional"}, "[2]": {"tested_on": "Human immunodeficiency virus 1", "experiment": "Reactivation of HIV-1 latency infected in human Th17 cells assessed as increase in HIV production by measuring phosphorylated S175 CDK9 levels at 1 uM incubated for 96 hrs by flow cytometry", "assay_type": "functional"}, "[3]": {"tested_on": "Human immunodeficiency virus 1", "experiment": "Reversal of HIV-1 latency infected in human J-Lat Tat-GFP Clone A7 cells assessed as increase in GFP expressing cells at 200 nM incubated for 72 hrs by flow cytometry analysis relative to control", "assay_type": "functional"}, "[4]": {"tested_on": "Human immunodeficiency virus 1", "experiment": "Reactivation of HIV-1 latency in human U1 cells assessed as fold increase in HIV transcription by measuring GFP expression at 2 uM incubated for 24 hrs in presence of PEP005 by flow cytometry", "assay_type": "functional"}, "[5]": {"tested_on": "Human immunodeficiency virus 1", "experiment": "Reversal of HIV-1 latency infected in GFP-fused human J-Lat C11 cells assessed as increase in GFP expression at 10 uM incubated for 72 hrs by flow cytometry", "assay_type": "functional"}, "[6]": {"tested_on": "Human immunodeficiency virus 1", "experiment": "Reversal of HIV-1 latency infected in GFP-fused human J-Lat 10.6 cells increase in GFP expressing cells by FACS analysis", "assay_type": "functional, organism-based", "settings": "Human immunodeficiency virus 1, J-Lat 10.6"}, "[7]": {"tested_on": "Human immunodeficiency virus 1", "experiment": "Reactivation of HIV-1 latency in GFP-fused human primary CD4+ve Th cells infected with HIV-1NL4-3 luciferase virus assessed as fold increase in GFP expression incubated for 48 hrs by luciferase luminescence analysis", "assay_type": "functional"}, "[8]": {"tested_on": "Human immunodeficiency virus 1", "experiment": "Reversal of HIV-1 latency infected in GFP-fused human J-Lat C11 cells assessed as increase in GFP expression at 4 uM incubated for 3 hrs by flow cytometry", "assay_type": "functional"}, "[9]": {"tested_on": "Human immunodeficiency virus 1", "experiment": "Reversal of HIV-1 latency infected in GFP-fused human J-Lat A2 cells assessed as increase in GFP expression at 4 uM incubated for 3 hrs by flow cytometry", "assay_type": "functional"}, "[10]": {"tested_on": "Human immunodeficiency virus 1", "experiment": "Reactivation of HIV-1 latency infected in human J-Lat GFP Clone A72 cells assessed as increase in GFP expression at 5 to 10 mM incubated for 18 hrs by flow cytometry", "assay_type": "functional", "settings": "dose 5-10 mM"}, "[11]": {"biological_target": "N-lysine methyltransferase SMYD2 (Homo sapiens, UniProt Q9NRG4)", "sequence (Q9NRG4 whole entry)": "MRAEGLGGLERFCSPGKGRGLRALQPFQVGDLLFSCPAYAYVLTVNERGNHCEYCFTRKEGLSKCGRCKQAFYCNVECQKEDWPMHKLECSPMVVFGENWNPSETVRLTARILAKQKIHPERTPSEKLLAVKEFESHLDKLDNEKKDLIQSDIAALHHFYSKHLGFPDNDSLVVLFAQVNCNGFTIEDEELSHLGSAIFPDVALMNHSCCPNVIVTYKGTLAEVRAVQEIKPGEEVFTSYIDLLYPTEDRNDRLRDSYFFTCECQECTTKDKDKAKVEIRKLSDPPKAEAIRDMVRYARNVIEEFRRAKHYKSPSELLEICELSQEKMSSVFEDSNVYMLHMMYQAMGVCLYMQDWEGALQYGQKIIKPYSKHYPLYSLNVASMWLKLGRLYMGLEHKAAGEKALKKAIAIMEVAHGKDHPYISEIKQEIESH", "experiment": "Inhibition of SMYD2 (unknown origin)"}, "[12]": {"tested_on": "Human immunodeficiency virus 1", "experiment": "Reactivation of HIV-1 latency infected in human CD4+ve Th cells assessed as fold increase in GFP expression at 500 nM incubated for 18 hrs by flow cytometry", "assay_type": "functional"}, "[13]": {"tested_on": "Human immunodeficiency virus 1", "experiment": "Reversal of HIV-1 latency infected in GFP-fused human A10.6 cells assessed as increase in GFP expressing cells at 0.25 uM incubated for 24 hrs by FACS analysis", "assay_type": "functional"}, "[14]": {"tested_on": "Human immunodeficiency virus 1", "experiment": "Reversal of HIV-1 latency infected in GFP-fused human A10.6 cells assessed as increase in GFP expressing cells at 1 uM incubated for 24 hrs by FACS analysis", "assay_type": "functional, A10.6 cell"}, "[15]": {"tested_on": "Human immunodeficiency virus 1", "experiment": "Reversal of HIV-1 latency infected in GFP-fused human A10.6 cells assessed as fold increase in acetylation of H4 within Nuc-1 at 0.5 uM incubated for 4 hrs by ChIP assay", "assay_type": "functional, A10.6 cell"}, "[16]": {"tested_on": "Human immunodeficiency virus 1", "experiment": "Reversal of HIV-1 latency infected in GFP-fused human A10.6 cells assessed as fold increase in acetylation of H3 within Nuc-1 at 0.5 uM incubated for 4 hrs by ChIP assay", "assay_type": "functional, A10.6 cell"}, "[17]": {"tested_on": "Human immunodeficiency virus 1", "experiment": "Reversal of HIV-1 latency infected in GFP-fused human Jurkat latent cells assessed as increase in GFP expressing cells at 4 uM incubated for 48 hrs by flow cytometry analysis", "assay_type": "functional"}},
  "data": [
    {"molecule": "COc1cc2c(NC3CCN(C(C)C)CC3)nc(C3CCCCC3)nc2cc1OCCCN1CCCC1", "values": [
      {"measurement": "Activity", "setting": "[1]", "value": 22, "unit": "%"},
      {"measurement": "Activity", "setting": "[2]", "value": 35, "unit": "%"}
    ]},
    {"molecule": "CN(C)c1ccc(C(=O)NCCCCCCC(=O)NO)cc1", "values": [
      {"measurement": "Activity", "setting": "[3]", "value": 25.2, "unit": "%"}
    ]},
    {"molecule": "Cc1sc2c(c1C)C(c1ccc(Cl)cc1)=N[C@@H](CC(=O)OC(C)(C)C)c1nnc(C)n1-2", "values": [
      {"measurement": "fold change (FC)", "setting": "[4]", "value": 250}
    ]},
    {"molecule": "COc1ccccc1S(=O)(=O)Nc1ccc2c(c1)CN(C)C(=O)N2", "values": [
      {"measurement": "Activity", "setting": "[5]", "value": 89, "unit": "%"}
    ]},
    {"molecule": "CCCc1cc(C)[nH]c(=O)c1CNC(=O)c1cc(-c2ccnc(N3CCN(C)CC3)c2)cc2c1cnn2C(C)C", "values": [
      {"measurement": "Activity", "setting": "[1]", "value": 20, "unit": "%"},
      {"measurement": "Activity", "setting": "[2]", "value": 35, "unit": "%"}
    ]},
    {"molecule": "O=C(CCCCSc1nc(-c2ccc(-c3ccccc3)cc2)cc(=O)[nH]1)NO", "values": [
      {"measurement": "EC50", "setting": "[6]", "value": 0.35, "unit": "µM"},
      {"measurement": "fold change (FC)", "setting": "[7]", "value": 4.3}
    ]},
    {"molecule": "O=C(/C=C/c1ccc(NC(=O)C(Cc2ccccc2)c2ccccc2)cn1)NO", "note": "(configuration not stated)", "values": [
      {"measurement": "EC50", "setting": "[6]", "value": 0.35, "unit": "µM"},
      {"measurement": "fold change (FC)", "setting": "[7]", "value": 6.4}
    ]},
    {"molecule": "Nc1ccc(F)cc1NC(=O)c1ccc(CNC(=O)/C=C/c2cccnc2)cc1", "values": [
      {"measurement": "Activity", "setting": "[8]", "value": 82.6, "unit": "%"},
      {"measurement": "Activity", "setting": "[9]", "value": 80.6, "unit": "%"}
    ]},
    {"molecule": "O=C(NCCCN1CCCC1)c1cncc(-c2ccccc2N2CCN(CCc3c[nH]c4ccccc34)CC2)c1", "values": [
      {"measurement": "Activity", "setting": "[10]", "value": 30, "unit": "%"}
    ]},
    {"molecule": "N#Cc1cc(C(=O)NCCCN2CCCC2)cc(-c2ccccc2N2CCN(CCc3c[nH]c4ccccc34)CC2)c1", "values": [
      {"measurement": "IC50", "setting": "[11]", "value": 0.027, "unit": "µM"},
      {"measurement": "Activity", "setting": "[10]", "value": 30, "unit": "%"},
      {"measurement": "fold change (FC)", "setting": "[12]", "value": 4}
    ]},
    {"molecule": "CCC(=O)CCCCC[C@@H]1NC(=O)[C@H]2CCCCN2C(=O)[C@H]([C@@H](C)CC)NC(=O)[C@H](Cc2cc3ccccc3n2OC)NC1=O", "values": [
      {"measurement": "Activity", "setting": "[13]", "value": 7.5, "unit": "%"},
      {"measurement": "Activity", "setting": "[14]", "value": 24.9, "unit": "%"},
      {"measurement": "fold change (FC)", "setting": "[15]", "value": 3.15},
      {"measurement": "fold change (FC)", "setting": "[16]", "value": 1.34}
    ]},
    {"molecule": "CC(=O)SCCCCC[C@H](NC(=O)C1CCC(=O)N1)C(=O)Nc1ccccc1", "note": "(some centres not stated)", "values": [
      {"measurement": "Activity", "setting": "[17]", "value": 52, "unit": "%"}
    ]}
  ]
}
